Data from patent US10131651B2, “[7,6]-fused bicyclic antidiabetic compounds” (Merck Sharp & Dohme Corp., priority 2014, dated 2018).

The compounds below were run against human GPR40 (Homo sapiens (Human), UniProt O14842) (assay: Inositol Phosphate Turnover (IP1) Assay). Conditions: HEK cells stably expressing human GPR40.
Assay type: cell-based
Experimental: Human and mouse GPR40 stable cell-lines were generated in CHO cells stably expressing NFAT BLA (Beta-lactamase). A human GPR40 stable cell-line was generated in HEK cells stably expressing the acquorin expressing reporter. The expression plasmids were transfected using lipofectamine (Life Technologies) following manufacturer's instructions. Stable cell-lines were generated following drug selection.
The assay is performed in 384-well format. HEK cells stably expressing human GPR40 are plated at 15,000 cells per well in growth medium (DMEM/10% fetal calf serum). Cell plates are then incubated 16 hours at 37 degrees in a 5% CO2 incubator.
Measurement of Inositol Phosphate Turnover (IP1) is performed using the CisBio IP-One kit (Part number 62IPAPEB). After the 16 hour incubation, the cells are washed with HEPES buffer and 10 ul of stimulation buffer (prepared as described in the kit) is added to each well. In a separate plate, compounds are diluted in DMSO (400-fold over the final concentration in the assay well) and 25 nl is acoustically transferred to the appropriate well in the assay cell plate. The plates are then incubated for 60 minutes at 37 degrees. 10 ul of detection buffer (also prepared as described in the IP-One kit) is added to each well and the plates are incubated for 60 minutes in the dark. The plates are then read in a Perkin Elmer EnVision or equivalent reader able to measure FRET. Fluorescent ratio of emission at 665 and 620 nm is then converted to IP1 concentration by back calculating from an IP1 standard curve prepared at the time of the assay.

Chain of human GPR40 (O14842 whole entry): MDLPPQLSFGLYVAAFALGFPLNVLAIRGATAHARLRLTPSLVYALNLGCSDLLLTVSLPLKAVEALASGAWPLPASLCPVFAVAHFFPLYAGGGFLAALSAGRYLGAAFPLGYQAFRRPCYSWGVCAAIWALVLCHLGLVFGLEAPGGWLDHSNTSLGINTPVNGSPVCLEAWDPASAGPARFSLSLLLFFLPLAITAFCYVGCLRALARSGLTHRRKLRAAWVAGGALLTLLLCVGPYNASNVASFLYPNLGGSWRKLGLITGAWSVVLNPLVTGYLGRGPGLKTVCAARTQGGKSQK

EC50 [nM] | SMILES
3.1 | COc1cc(-c2ccc(C3CCCc4ccc([C@H](C5CC5)[C@H](C)C(=O)O)cc4O3)cc2)c(F)cn1 (mixture of isomers) [Example 5, (2S,3R)-3-cyclopropyl-3-((RS)-2-(4-(5-fluoro-2-methoxypyridin-4-yl)phenyl)-2,3,4,5-tetrahydrobenzo[b]oxepin-8-yl)-2-methylpropanoic acid]
3 | COc1cc(-c2ccc(C3CCCc4ccc([C@H](C5CC5)[C@H](C)C(=O)O)cc4O3)nc2)c(F)cn1 (mixture of isomers) [Example 7, (2S,3R)-3-cyclopropyl-3-((RS)-2-(5′-fluoro-2′-methoxy-[3,4′-bipyridin]-6-yl)-2,3,4,5-tetrahydrobenzo[b]oxepin-8-yl)-2-methylpropanoic acid]
3.6 | COc1cc(-c2ccc(C3CCCc4ccc([C@H](C5CC5)[C@H](C)C(=O)O)cc4O3)c(F)c2)ccn1 (single isomer, unassigned) [Example 1, (2S,3R)-3-cyclopropyl-3-((R or S)-2-(2-fluoro-4-(2-methoxypyridin-4-yl)phenyl)-2,3,4,5-tetrahydrobenzo[b]oxepin-8-yl)-2-methylpropanoic acid]
14 | COc1cc(-c2ccc(C3CCCc4ccc([C@H](C5CC5)[C@H](C)C(=O)O)cc4O3)c(F)c2)ccn1 (single isomer, unassigned) [Example 2, (2S,3R)-3-cyclopropyl-3-((R or S)-2-(2-fluoro-4-(2-methoxypyridin-4-yl)phenyl)-2,3,4,5-tetrahydrobenzo[b]oxepin-8-yl)-2-methylpropanoic acid]
13 | C[C@H](C(=O)O)[C@H](c1ccc2c(c1)OC(C1CN(Cc3cc(C(F)(F)F)ccc3C(F)(F)F)C1)CCC2)C1CC1 (single isomer, unassigned) [Example 3, (2S, 3R)-3-((R or S)-2-(1-(2,5-bis (trifluoromethyl)benzyl)azetidin-3-yl)-2,3,4,5-tetrahydrobenzo[b]oxepin-8-yl)-3-cyclopropyl-2-methylpropanoic acid]
27 | C[C@H](C(=O)O)[C@H](c1ccc2c(c1)OC(C1CN(Cc3cc(C(F)(F)F)ccc3C(F)(F)F)C1)CCC2)C1CC1 (single isomer, unassigned) [Example 4, (2S,3R)-3-((R or S)-2-(1-(2,5-bis(trifluoromethyl)-benzyl)azetidin-3-yl)-2,3,4,5-tetrahydrobenzo[b]-oxepin-8-yl)-3-cyclopropyl-2-methylpropanoic acid]
5.2 | COc1cc(-c2ccc(C3CCCc4ccc([C@H](C5CC5)[C@H](C)C(=O)O)cc4O3)cc2)c(F)cn1 (single isomer, unassigned) [Example 6, (2S,3R)-3-cyclopropyl-3-((R or S)-2-(4-(5-fluoro-2-methoxypyridin-4-yl)phenyl)-2,3,4,5-tetrahydrobenzo[b]oxepin-8-yl)-2-methylpropanoic acid]
29 | COc1cc(-c2ccc(C3CCCc4ccc([C@H](C5CC5)[C@H](C)C(=O)O)cc4O3)nc2)c(F)cn1 (single isomer, unassigned) [Example 8, (2S,3R)-3-cyclopropyl-3-((R or S)-2-(5′-fluoro-2′-methoxy-[3,4′-bipyridin]-6-yl)-2,3,4,5-tetrahydrobenzo[b]oxepin-8-yl)-2-methylpropanoic acid]
4.6 | COc1ccc(F)c(-c2ccc(C3CCCc4ccc([C@H](C5CCC5)[C@H](C)C(=O)O)cc4O3)cc2)c1 (single isomer, unassigned) [Example 10, Sodium (2S,3R)-3-cyclobutyl-3-((R or S)-2-(2′-fluoro-5′-methoxy-[1,1′-biphenyl]-4-yl)-2,3,4,5-tetrahydrobenzo[b]oxepin-8-yl)-2-methylpropanoate]
6 | COc1ccc(F)c(-c2ccc(C3CCCc4ccc([C@H](C5CCC5)[C@H](C)C(=O)O)cc4O3)cc2)c1 (single isomer, unassigned) [Example 11, Sodium (2S,3R)-3-cyclobutyl-3-((R or S)-2-(2′-fluoro-5′-methoxy-[1,1′-biphenyl]-4-yl)-2,3,4,5-tetrahydrobenzo[b]oxepin-8-yl)-2-methylpropanoate]
116 | COc1cc(-c2cnc(C3CCCc4ccc([C@H](C5CC5)[C@H](C)C(=O)O)cc4O3)cn2)c(F)cn1 (single isomer, unassigned) [Example 12]
684 | COc1cc(-c2cnc(C3CCCc4ccc([C@H](C5CC5)[C@H](C)C(=O)O)cc4O3)cn2)c(F)cn1 (single isomer, unassigned) [Example 13]
